Measured values from patent US9045491B2, “Thienyl [3,2-D] pyrimidin-4-one compounds, preparation method, pharmaceutical compositions and use thereof” (SHANGHAI INSTITUTE OF MATERIA MEDICA, CHINESE ACADEMY OF …, priority 2011, dated 2015).

How the values were obtained:
DPP IV = target: T1, DPP IV (Mus musculus, UniProt P28843); test: DPP IV inhibitory activity in vivo: DPP IV activity in plasma of ICR mouse after single oral dose; conditions: oral 3 mg/kg, compared with Alogliptin and Vildagliptin (LAF237), FIG. 1-6
T1 construct: from tissue; host or cells: plasma of ICR mouse
T1 sequence (P28843 37-760 limits assumed): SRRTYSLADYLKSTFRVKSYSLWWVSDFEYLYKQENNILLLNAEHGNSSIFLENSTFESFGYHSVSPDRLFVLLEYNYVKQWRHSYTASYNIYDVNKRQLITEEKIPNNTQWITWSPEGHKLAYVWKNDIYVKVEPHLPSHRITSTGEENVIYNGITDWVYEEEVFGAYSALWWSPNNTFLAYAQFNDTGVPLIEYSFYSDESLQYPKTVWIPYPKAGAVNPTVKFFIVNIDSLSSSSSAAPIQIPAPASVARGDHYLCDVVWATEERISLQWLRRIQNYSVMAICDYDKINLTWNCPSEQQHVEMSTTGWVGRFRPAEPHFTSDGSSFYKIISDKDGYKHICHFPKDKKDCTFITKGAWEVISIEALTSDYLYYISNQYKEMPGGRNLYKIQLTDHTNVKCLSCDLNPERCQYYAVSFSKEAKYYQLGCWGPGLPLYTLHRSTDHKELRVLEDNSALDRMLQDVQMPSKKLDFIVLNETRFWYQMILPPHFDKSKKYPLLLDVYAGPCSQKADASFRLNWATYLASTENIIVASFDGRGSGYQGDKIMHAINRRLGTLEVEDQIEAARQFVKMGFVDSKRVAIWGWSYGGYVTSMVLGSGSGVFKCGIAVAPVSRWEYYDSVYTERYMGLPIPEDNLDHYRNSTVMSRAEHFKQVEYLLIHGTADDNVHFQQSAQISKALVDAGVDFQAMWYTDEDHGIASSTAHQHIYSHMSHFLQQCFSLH
Description: Animals: ICR mouse (8-10 weeks old; sex: male; 25 g-30 g of body weight, purchased from Shanghai SLAC Laboratory Animal Center).
Meanwhile the solvent group was used as blank control. The blood was taken from orbital venous plexus of the mouse before administration, and 30, 60, 2 h, 4 h, 6 h, 8 h and […] after administration, respectively and loaded into Eppendorf tube (Qizhong Industrial (Shanghai) co., Ltd.) treated by anticoagulant. The plasma was obtained by centrifugation and DPP IV activity was determined.

[1] = Safety evaluation: single dose 100 mg/kg by gavage, one week observation; format: in vivo, ICR mouse; conditions: for body weight and viscera index versus normal control group (in words) / acute toxicity / kidney index versus normal control group (in words): ICR mouse; for body weight and viscera index versus normal control group (in words) / Kidney index / Liver index / Spleen index / body weight / food consumption: 100 mg/kg single dose; for acute toxicity: 100 mg/kg single dose by gavage, one week; for kidney index versus normal control group (in words): 100 mg/kg, 7th day after administration; for Kidney index / Liver index / Spleen index / body weight / food consumption: normal ICR mouse; for Kidney index / Liver index / Spleen index: 7th day
Description: After grouping, each compound was administrated once through gavage according to the dose of 100 mg/kg at the same time.

normal ICR mouse = test: Oral glucose tolerance test (OGTT), acute hypoglycemic effect of single oral dose; format: in vivo; conditions: for hypoglycemic ability in vivo, oral glucose tolerance test: single dose 3 mg/kg by gavage, glucose 2.5 g/kg after 6 hours, FIGS. 7-10
Description: Acute hypoglycemic effect of single dose through mouth on the normal ICR mouse
Animal: ICR mouse (8-10 weeks old, sex: male, weight: 25-30 g, purchased from Shanghai SLAC Laboratory Animal Center).
1. Two days before the experiment, the food consumption was recorded and the daily food consumption of each animal was calculated;
2. The animals fasted overnight (⅓ of daily food consumption was provided, about 2 g);
3. The blood glucose was measured on the second day.
4. The medicament was administrated through gavage (1 mouse/min). After 6 hours, the blood glucose was measured. Glucose was administrated through gavage according to the body weight (2.5 g/kg). The blood glucose value was monitored at 30 min, 60 min, 90 min, and 120 min after administration.

| Structure (SMILES) | DPP IV activity of ICR mouse plasma after single dose (given as hypoglycemic ability in vivo) (DPP IV) | body weight and viscera index versus normal control group (in words) [1] | acute toxicity [1] | kidney index versus normal control group (in words) [1] | Kidney index [1] | Liver index [1] | Spleen index [1] | body weight ([1]; 1 d after administration) | food consumption ([1]; 1 d after administration) | body weight ([1]; 2 d after administration) | food consumption ([1]; 2 d after administration) | body weight ([1]; 3 d after administration) | food consumption ([1]; 3 d after administration) | body weight ([1]; 4 d after administration) | food consumption ([1]; 4 d after administration) | body weight ([1]; 5 d after administration) | food consumption ([1]; 5 d after administration) | body weight ([1]; 6 d after administration) | food consumption ([1]; 6 d after administration) | body weight ([1]; 7 d after administration) | also measured |
| --- | --- | --- | --- | --- | --- | --- | --- | --- | --- | --- | --- | --- | --- | --- | --- | --- | --- | --- | --- | --- | --- |
| N#Cc1ccccc1Cn1c(N2CCC[C@@H](N)C2)nc2c(CO)csc2c1=O [DC291004] | comparable to that of Alogliptin (3 mg), and better than that of Vildagliptin (LAF237, 15 mg) | no statistical difference | did not reflect obvious acute toxicity | did not significantly differ | 1.5 ± 0.1% | 5.3 ± 0.3% | 0.4 ± 0.0% | 30.3 ± 1.0 g | 18.7 g · day^−1 · cage^−1 | 30.8 ± 0.9 g | 21.0 g · day^−1 · cage^−1 | 31.0 ± 1.2 g | 21.1 g · day^−1 · cage^−1 | 31.6 ± 1.2 g | 21.5 g · day^−1 · cage^−1 | 32.0 ± 1.6 g | 21.9 g · day^−1 · cage^−1 | 32.0 ± 1.2 g | 21.5 g · day^−1 · cage^−1 | 32.5 ± 1.3 g | food consumption ([1]; 7 d after administration): 24.1 g · day^−1 · cage^−1; body weight ([1]; before administration): 30.2 ± 0.7 g; food consumption ([1]; before administration): 22.5 g · day^−1 · cage^−1; hypoglycemic ability in vivo, oral glucose tolerance test (normal ICR mouse): comparable to that of Alogliptin |
| COC(=O)c1csc2c(=O)n(Cc3ccccc3C#N)c(N3CCC[C@@H](N)C3)nc12 [DC291009] | comparable to that of Alogliptin (3 mg), and better than that of Vildagliptin (LAF237, 15 mg) | no statistical difference | did not reflect obvious acute toxicity | slightly lower than that of normal control group | 1.4 ± 0.1% | 5.3 ± 0.2% | 0.4 ± 0.1% | 31.3 ± 2.0 g | 21.2 g · day^−1 · cage^−1 | 31.5 ± 2.3 g | 21.3 g · day^−1 · cage^−1 | 31.8 ± 2.3 g | 22.6 g · day^−1 · cage^−1 | 32.3 ± 2.2 g | 22.8 g · day^−1 · cage^−1 | 32.4 ± 2.5 g | 22.2 g · day^−1 · cage^−1 | 32.6 ± 2.6 g | 21.9 g · day^−1 · cage^−1 | 33 ± 2.6 g | food consumption ([1]; 7 d after administration): 23.8 g · day^−1 · cage^−1; body weight ([1]; before administration): 30.8 ± 2.2 g; food consumption ([1]; before administration): 23.3 g · day^−1 · cage^−1; hypoglycemic ability in vivo, oral glucose tolerance test after multiple single-dose administration (normal ICR mouse; single administration at multiple doses, FIGS. 11-12): comparable to that of Alogliptin; hypoglycemic ability in vivo, oral glucose tolerance test (normal ICR mouse): comparable to that of Alogliptin |
